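Five concentrations, 48 hours, 96-well plates. GI50 = concentration required for 50% inhibition of growth. TGI: concentration producing complete growth inhibition.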 Where only a bound is given, the exact number is not on record here.

One may read the TGI as the concentration at which net growth stops. A low value points to greater sensitivity of the cells. What is called GI50 is the concentration at which growth is held to half of that of the control.

Test systems include BT-549 breast; HCC-2998 colon; HOP-92 NSCLC; HS 578T breast; KM12 colon; MOLT-4 leukemia; NCI-H522 lung; RXF 393 renal; SF-539 CNS; SK-MEL-28 melanoma.
Common to all, as to assay: DTP human tumour cell line panel, 48 h

For `O=C(O)c1ccc(S(=O)(=O)N=Nc2c(O)[nH]c3ccccc23)cc1`, the TGI in the experiment on BT-549 breast, in the experiment with HCC-2998 colon, with HOP-92 NSCLC, in the experiment on HS 578T breast, with KM12 colon and in the experiment on MOLT-4 leukemia was > 100 µM throughout. In addition, the total growth inhibition concentration (TGI) in the experiment on NCI-H522 lung, in the experiment with RXF 393 renal, with SF-539 CNS and with SK-MEL-28 melanoma was > 100 µM each time.

Turning to `COc1cc(-c2nn(C(=O)NS(=O)(=O)c3ccc(C)cc3)cc2-c2ccncc2)ccc1Cl`, the GI50 was 2.66 µM with BT-549 breast; 11.4 µM with HCC-2998 colon; 10.3 µM in the experiment with HOP-92 NSCLC; 7.38 µM in the experiment on HS 578T breast; 11 µM in the experiment with KM12 colon; 10.6 µM in the experiment with MOLT-4 leukemia. Besides, the GI50 is 10.4 µM with NCI-H522 lung, 2.67 µM in the experiment with RXF 393 renal, 3.61 µM in the experiment with SF-539 CNS and 3.51 µM in the experiment on SK-MEL-28 melanoma. Moreover, the TGI in the experiment with BT-549 breast is 10.6 µM; with HCC-2998 colon it was 35.8 µM; in the experiment with HOP-92 NSCLC it was 77.8 µM; with HS 578T breast, > 100 µM; in the experiment with KM12 colon, 43.5 µM; in the experiment on MOLT-4 leukemia, 54.1 µM. For the same compound, the concentration for total growth inhibition (TGI) with NCI-H522 lung stood at 26.7 µM; in the experiment with RXF 393 renal it was 12 µM; in the experiment with SF-539 CNS it was 14.7 µM; in the experiment with SK-MEL-28 melanoma, 13.1 µM.

Regarding `COC(=O)c1c2c(c(C)[n+]([O-])c1C)C(=O)C(NCc1cccc(OC)c1)=CC2=O`, the GI50 in the experiment with BT-549 breast is 3.49 µM; with HCC-2998 colon, 3.12 µM; in the experiment on HOP-92 NSCLC it was 2.75 µM; in the experiment with HS 578T breast, 4.1 µM; in the experiment with KM12 colon, 2.48 µM; in the experiment on MOLT-4 leukemia it was 2.39 µM. Further, the GI50 with NCI-H522 lung was 1.92 µM; with RXF 393 renal, 2.58 µM; in the experiment on SF-539 CNS it was 2.02 µM; in the experiment with SK-MEL-28 melanoma, 4.6 µM. In addition, the TGI stood at 13.4 µM with BT-549 breast; 9.64 µM in the experiment with HCC-2998 colon; 6.57 µM with HOP-92 NSCLC; 34.7 µM with HS 578T breast; 11.6 µM with KM12 colon; 6.67 µM in the experiment with MOLT-4 leukemia. Moreover, the TGI worked out at 5.02 µM in the experiment on NCI-H522 lung, 5.2 µM in the experiment with RXF 393 renal, 4.15 µM in the experiment with SF-539 CNS and 18.2 µM with SK-MEL-28 melanoma.

Take `O=C1NC(=O)C2(CCC(O)C2)c2cc[n+]([O-])cc21` (configuration not stated): the total growth inhibition concentration (TGI) in the experiment with BT-549 breast, in the experiment on HCC-2998 colon, in the experiment with HOP-92 NSCLC, with HS 578T breast, in the experiment with KM12 colon and in the experiment on MOLT-4 leukemia was > 100 µM in each case. The TGI in the experiment with NCI-H522 lung, in the experiment with RXF 393 renal, with SF-539 CNS and with SK-MEL-28 melanoma was > 100 µM in each case.

For the compound `COC(=O)[C@@H](Cc1c[nH]c2ccccc12)NC(=O)/C=C/c1ccccc1`, the GI50 in the experiment on BT-549 breast was 4.1 µM; with HCC-2998 colon it was 2.65 µM; in the experiment on HOP-92 NSCLC, 0.235 µM; in the experiment with HS 578T breast, 1.81 µM; with KM12 colon it was 4.13 µM; in the experiment on MOLT-4 leukemia it was 3.57 µM. Besides, the GI50 in the experiment with NCI-H522 lung is 1.81 µM; with RXF 393 renal, 1.5 µM; in the experiment on SF-539 CNS, 1.95 µM; in the experiment with SK-MEL-28 melanoma, 4.43 µM. Besides, the concentration for total growth inhibition (TGI) in the experiment on BT-549 breast is 71.8 µM; with HCC-2998 colon it was 8.56 µM; with HOP-92 NSCLC, 4.29 µM; in the experiment on HS 578T breast, 7.88 µM; in the experiment with KM12 colon, 33.5 µM; with MOLT-4 leukemia, > 100 µM. Besides, the concentration for total growth inhibition (TGI) in the experiment on NCI-H522 lung was 30.5 µM; in the experiment with RXF 393 renal it was 4.58 µM; in the experiment with SF-539 CNS it was 5.29 µM; in the experiment with SK-MEL-28 melanoma it was > 100 µM.

Turning to `O=C(O)C(Br)C(Br)c1ccccc1[N+](=O)[O-]` (configuration not stated), the concentration for total growth inhibition (TGI) in the experiment on BT-549 breast, in the experiment with HCC-2998 colon, with HOP-92 NSCLC, with HS 578T breast, in the experiment on KM12 colon and in the experiment on NCI-H522 lung was > 100 µM each time. Moreover, the concentration for total growth inhibition (TGI) with RXF 393 renal, in the experiment on SF-539 CNS and in the experiment on SK-MEL-28 melanoma was > 100 µM in each case.

As for `COc1ccc(NC(=O)Nc2ccc(Nc3nc(C)cc(Nc4ccc(C)cc4)n3)cc2)cc1`, the GI50 in the experiment with BT-549 breast was 1.88 µM; in the experiment on HCC-2998 colon, 1.89 µM; in the experiment on HOP-92 NSCLC, 1.44 µM; with HS 578T breast, 2.22 µM; with MOLT-4 leukemia, 0.257 µM; in the experiment with NCI-H522 lung, 1.93 µM. For the same compound, the GI50 in the experiment with RXF 393 renal was 1.61 µM; in the experiment on SF-539 CNS, 1.7 µM; in the experiment on SK-MEL-28 melanoma it was 1.51 µM. Also, the TGI in the experiment with BT-549 breast was 4.24 µM; with HCC-2998 colon it was 3.59 µM; in the experiment with HOP-92 NSCLC, 3.11 µM; in the experiment on HS 578T breast, 5.4 µM; in the experiment on MOLT-4 leukemia, 0.75 µM; in the experiment on NCI-H522 lung it was 4.42 µM. For the same compound, the TGI came to 3.12 µM in the experiment on RXF 393 renal, 3.31 µM in the experiment with SF-539 CNS and 3.14 µM with SK-MEL-28 melanoma.
